From patent publication US20220313651A1, “INHIBITORS OF ZIKA VIRUS INFECTION” (priority 2019, published 2022)

Test system: ZIKV human strain R103451
Test: Protection of Ifnar1-/- mice from lethal ZIKV challenge (survival, weight)
Format: in vivo
Conditions: 20 mg/kg i.p. 12 h before and 6, 24, 48 h after infection; ZIKV R103451 200 PFU/mouse; 21 days
Excerpt: FIG. 8A is a schematic diagram of experimental procedures. […] The treated mice were infected with ZIKV human strain R103451 (200 plaque forming unit (PFU)/mouse), followed by evaluation of survival rate (FIG. 8B) or weight changes (FIG. 8C) for 21 days. The data are expressed as mean±s.e.m. of mice in each group (n=6). In a separate experiment, ST087010 or gossypol-treated mice were infected with ZIKV human strain PAN2016 (200, PFU/mouse). Five days post-infection (dpi), viral titers were detected in tissues by plaque assay (FIG. 8D), and ZIKV or caspase-3 signals were measured in eye (FIG. 8E) and testis ([…]) tissues by immunofluorescence staining. The data are expressed as mean±s.e.m. of mice in each group (n=5), and significant differences among different groups are shown as *, **, and ***. The detection limit is 25 PFU/g. ZIKV and caspase-3 (in FIG. 8E-F) were stained with anti-ZIKV and anti-active caspase-3 antibodies, respectively. Nuclei were stained with DAPI (40,6-diamidino-2-phenylindole). Representative images of immunofluorescence staining are shown. Magnification, 63×, and scale bar, 10 μm.
Adult male (3-4 or 7-8-week-old) and pregnant female (8-12-week-old, E12-14) Ifnar1^−/− mice were used in the study. […]
ST087010 was evaluated for protection against ZIKV infection in ZIKV-susceptible Ifnar1^−/− mice. […]

With Cc1cc2c(C(C)C)c(O)c(O)c(/C=N/n3c(=O)[nH][nH]c3=O)c2c(O)c1-c1c(C)cc2c(C(C)C)c(O)c(O)c(/C=N/n3c(=O)[nH][nH]c3=O)c2c1O [ST087010] the “Survival (mice protected from death)” value was 50% and the Weight changes was “slight weight loss during 6-12 dpi”.
